What was measured:
[1] = Solubility of batimastat in ethanol (100%); format: physicochemical
From the text: This was by preparation of a series of solutions outlined in Table 1

[2] = Batimastat elution from stents in PBS, non flow system; format: physicochemical; settings: coated stents loaded from methanol, after 1 hour, based on total amount loaded
Description: Elution studies were carried out at 25° C. for up to 1 hour in gently agitated PBS. […] At various time intervals a I ml aliquot was removed and replaced with 1 ml fresh PBS. The stents and water aliquots were measured, see section 1.1.4, to give the amount of drug eluted and the amount of drug remaining on the stents, see section 1.2.1 for results. Samples of eluent from elution studies were injected directly into the system. The sensitivity of the method was 0.010 ppm (0.010 μg/ml).

[3] = tested on: coronary arteries of farm swine; experiment: Re-endothelialisation of batimastat-loaded BiodivYsio stents (SEM); format: in vivo; settings: 5 days
From the text: BiodivYsio stents (control, low dose batimastat and high dose batimastat) were implanted into healthy farm swine. After 5 days the animals were sacrificed and the stents studied for endothelialisation using scanning electron microscopy.
The stents were implanted into the coronary arteries of farm swine (2 per animal, each in different arteries). After sacrifice, the vessels were excised and trimmed of all extraneous tissue, washed in buffer, and fixed in 2.5% glutaraldehyde at pH 7.4. Fixation was carried out for a minimum of 24-48 hours in 2.5% glutaraldehyde. The section of artery was rinsed in 0.1M cacodylate buffer pH 7.4. The arteries were shipped in 0.1M cacodylate buffer pH 7. The vessels were required to be left whole, i.e. without longitudinal transection. A small V was marked in the proximal end of the vessel to determine vessel orientation. SEM analysis was carried out on three sections of the stented artery and at 2 different magnifications (high and low). The analysis concentrated on the rate and extent of re-endothelisation of the stent struts and the presence of any cellular/biological debris within the stented segment of artery.

[4] = Pharmacokinetic study, 14C batimastat-loaded BiodivYsio stents in iliac arteries; format: in vivo, New Zealand white rabbit; settings: rabbit iliac arteries, 28 days post-implantation
From the text: The pharmacokinetic studies were initiated to investigate the deposition of drug from the batimastat-loaded BiodivYsio stent.

farm swine = experiment: One-month pre-clinical assessment (QCA, histomorphometry, histology); format: in vivo; settings: low dose 0.30 μg per mm^2 of stent, 1 month, control 4.0
From the text: A total of 24 stents were implanted in 12 farm swine pigs for 1 month. […] The higher dose was set at the maximum quantity that could be loaded onto the stent.

Yucatan minipigs = experiment: 3-month pre-clinical evaluation (QCA stenosis); format: in vivo; settings: 3 months, not statistically significant (p=0.15)
From the text: After 3 months a trend in favour of the treatment groups was found, with an indication of a dose-response relationship shown in FIG. 5. The stenosis was reduced by 20% and 34% in the low and high dose groups respectively compared to the control.

[5] = P is the partition coefficient; cited from earlier work

SMILES | Solubility ([1]; 1.05 mg per ml batimastat in ethanol (100%)) | Solubility ([1]; 1.13 mg per ml batimastat in ethanol (100%)) | Solubility ([1]; 2.6 mg per ml batimastat in ethanol (100%)) | Batimastat remaining on the stents [2] | Effect on endothelialisation process in-vivo ([3]; high dose 115.3±16.1 μg per 15 mm stent) | Effect on endothelialisation process in-vivo ([3]; low dose 34.2±1.6 μg per 15 mm stent) | Loaded drug eluted from stent [4] | Intimal area (farm swine) | Reduction of stenosis compared to the control (QCA) (Yucatan minipigs; high dose 0.30±0.13 μg per mm^2 of stent) | Reduction of stenosis compared to the control (QCA) (Yucatan minipigs; low dose 0.03±0.01 μg per mm^2 of stent) | log P [5]
CNC(=O)[C@H](Cc1ccccc1)NC(=O)[C@H](CC(C)C)[C@H](CSc1cccs1)C(=O)NO (relative stereo) [batimastat, (2R-(1(S*),2R*,3S*))—N4-hydroxy-N1-(2-(methylamino)-2-oxo-1-(phenylmethypethyl)-2-(2-methylpropyl)-3-((thienylthio)methyl)butanediamide] | clear suspension | fine suspension | white suspension | 44% | did not affect the endothelialisation process | did not affect the endothelialisation process | ~95% | 2.5 | 34% | 20% | 
C[C@@H]1C[C@H]2[C@@H]3CCC4=CC(=O)C=C[C@]4(C)[C@@]3(F)[C@@H](O)C[C@]2(C)[C@@]1(O)C(=O)CO [dexamethasone] |  |  |  |  |  |  |  |  |  |  | 2.55
